In experiment [1] the test system is esterase from hog's liver. Description: spot test: hydrolysis of substrate on buffer-oxidation agent paper, visual colour evaluation. The format is biochemical. The arrangement: key: +: coloration; ++: strong coloration; +++: strong and rapid coloration. To be noted: potassium ferricyanide, enzyme about 1000 U/ml., ambient temperature; for Coloration pH 6: pH 6.0 fleece; for Coloration pH 9: pH 9.0 fleece. Here is the method:
(§1) In a spot test, there was investigated the hydrolysis of various compounds by appropriate hydrolases (aryl sulphatase, acidic and alkaline phosphatase, esterase, acetyl-β-O-glucosamidase and lipase). The base thereby liberated was simultaneously oxidized by potassium ferricyanide to the colored material and the color formation evaluated visually.
(§2) The rate of hydrolysis was evaluated visually at pH 6.0, as well as at pH 9.0, by spotting a hydrolase solution on to a substrate-buffer-oxidation agent-paper. The enzyme concentration was about 1000 U/ml. and the test temperature was ambient temperature. The non-enzymatic hydrolysis with a 0.9% aqueous sodium chloride solution as sample was evaluated for the purpose of comparison.
(§3) Impregnation solution: 100 mmole/liter potassium dihydrogen phosphate 10 mmole/liter potassium ferricyanide 2% Pluronic® F 68
(§4) The pH value was adjusted to 6.0 with a 2N aqueous solution of potassium hydroxide.
(§5) Impregnation solution: 100 mmole/liter glycine 10 mmole/liter potassium ferricyanide 2% Pluronic® 68
(§6) The pH value was adjusted to 9.0 with a 2N aqueous solution of sodium hydroxide.
(§7) Impregnation: An 8×30 cm. paper fleece (Whatman 3M) was impregnated with 8 ml. of impregnation solution and dried for 30 minutes at 50° C. in a drying cabinet.
(§8) The so impregnated buffer-oxidation agent papers were cut up into 8×2 cm. strips and post-impregnated with substrate solution. Substrate solution/impregnation solution: 5 mg. of the substrate to be tested (or the free base) were dissolved or suspended in 1 ml. methanol and, in each case, 10 μl. thereof applied to the buffer-oxidation agent papers. The solvent was evaporated with a blow drier. On to this substrate oxidation agent surface were then dosed on the hydrolase solutions and evaluated. […]

The subject of the next experiment is lipase. Described as above. Format: biochemical. The arrangement: key: +: coloration; ++: strong coloration; +++: strong and rapid coloration. To be noted: potassium ferricyanide, enzyme about 1000 U/ml., ambient temperature. Here is the method:
as §1, §2, §3, §4, §5, §6, §7, §8

The test system of the next experiment is alkaline phosphatase. The experiment is described as above. The format is biochemical. The arrangement: key: +: coloration; ++: strong coloration; +++: strong and rapid coloration. Particulars: potassium ferricyanide, enzyme about 1000 U/ml., ambient temperature; for Coloration pH 9: pH 9.0 fleece; for Coloration pH 6: pH 6.0 fleece. Here is the method:
as §1, §2, §3, §4, §5, §6, §7, §8

Experiment [2] has as its system N-acetyl-β-D-glucosaminidase. The experiment is described as above. The format is biochemical. On the set-up: key to Coloration pH 6 / Coloration pH 9: +: coloration; ++: strong coloration; +++: strong and rapid coloration. The method, then:
as §1, §2, §3, §4, §5, §6, §7, §8

Experiment [3] deals with T1, β-galactosidase labelled immune complex (Escherichia coli, UniProt P00722). Description: thyroxine (T4) test strip: colour formation from galactosidase substrate. The format is biochemical. To be noted: T4-containing sample, sodium perborate/horseradish peroxidase, after 10 minutes. Here is the method:
Fleece 14 is impregnated with a conjugate of β-galactosidase with an antibody against T4.
A piece of paper (Schleicher & Schull 3512) was activated with cyanogen bromide and T4 succinimide ester bound thereon.
d) Fleece 13 serves for the sample application.
For the production of the test carrier 11, the fleece are fixed to a base film 12 as shown in FIG. 2 of the accompanying drawings.
The sample was prepared analogously to Example 15.
The test strip 11 was placed with the end 17 in the solution. The T4-containing sample penetrates into the fleece 13. From there, it flows on into fleece 14 from where it dissolves off the β-galactosidase conjugate. […] The solution which now, besides this immune complex, also contains an excess of the β-galactosidase conjugate, penetrates into fleece 15. This excess is there bound to the paper via bound T4.
The solution which still contains the immune complex penetrates into fleece 16. The process according to the invention for the detection of the β-galactosidase labelled immune complex, which represents the substance with hydrolase activity, there takes place. The more of this complex and thus also the more of T4 was present in the solution, the more strongly has the fleece 16 become red colored after 10 minutes. In the case of the absence of T4, the fleece 16 remains white.

The target in experiment [4] is T1, β-galactosidase labelled immune complex. Description: hCG test carrier: colour formation from galactosidase substrate. To be noted: hCG-containing sample, sodium perborate/horseradish peroxidase, pH 7, within 10 minutes.

T1 sequence (P00722 2-1024, one chain of several): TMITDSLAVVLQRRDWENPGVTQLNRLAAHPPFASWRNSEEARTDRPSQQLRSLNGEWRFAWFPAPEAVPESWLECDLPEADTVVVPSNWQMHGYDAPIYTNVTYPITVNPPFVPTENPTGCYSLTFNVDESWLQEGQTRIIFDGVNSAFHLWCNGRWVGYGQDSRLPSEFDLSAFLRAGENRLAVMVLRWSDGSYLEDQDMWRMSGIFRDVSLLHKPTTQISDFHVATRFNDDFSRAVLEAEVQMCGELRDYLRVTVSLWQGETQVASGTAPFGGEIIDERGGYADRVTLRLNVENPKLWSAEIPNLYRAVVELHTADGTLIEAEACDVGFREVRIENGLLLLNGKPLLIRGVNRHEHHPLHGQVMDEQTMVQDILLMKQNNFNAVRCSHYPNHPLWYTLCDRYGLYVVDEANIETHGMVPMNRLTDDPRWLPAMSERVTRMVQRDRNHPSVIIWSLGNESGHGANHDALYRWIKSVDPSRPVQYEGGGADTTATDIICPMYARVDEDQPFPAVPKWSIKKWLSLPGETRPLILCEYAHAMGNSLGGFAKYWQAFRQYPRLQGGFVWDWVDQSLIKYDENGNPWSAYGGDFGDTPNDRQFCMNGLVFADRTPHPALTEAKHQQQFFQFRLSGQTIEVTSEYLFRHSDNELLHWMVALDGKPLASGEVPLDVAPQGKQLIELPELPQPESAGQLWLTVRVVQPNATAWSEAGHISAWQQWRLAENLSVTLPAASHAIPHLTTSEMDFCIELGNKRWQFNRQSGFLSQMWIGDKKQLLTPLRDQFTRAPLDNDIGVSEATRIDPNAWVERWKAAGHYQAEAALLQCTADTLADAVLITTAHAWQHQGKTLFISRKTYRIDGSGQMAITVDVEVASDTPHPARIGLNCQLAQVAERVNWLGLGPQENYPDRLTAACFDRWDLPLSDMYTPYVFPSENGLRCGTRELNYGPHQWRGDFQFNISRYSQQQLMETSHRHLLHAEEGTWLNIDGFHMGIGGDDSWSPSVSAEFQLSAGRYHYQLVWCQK

For `COc1cc(-c2nc(-c3ccc(N(C)C)cc3)c(C)[nH]2)ccc1OC(C)=O` [Example 4, 4-[4-(4-Dimethylaminophenyl)-5-methyl-1H-imidazol-2-yl]-2-methoxyphenyl acetate], in experiment [1], the “Coloration pH 6” value is listed as “++” and the “Coloration pH 9” value was “+++”.

Take `COc1cc(-c2nc(-c3ccc(N(C)C)cc3)c(C)o2)ccc1OC(C)=O` [Example 4a, 4-[4-(4-Dimethylaminophenyl)-5-methyloxazol-2-yl]-2-methoxyphenyl acetate]: in experiment [1], the “Coloration pH 6” value is “+++” and the “Coloration pH 9” value was “+++”.

For `COc1cc(-c2nc(-c3ccc(N(C)C)cc3)c(C)s2)cc(OC)c1OC(C)=O` [Example 4b, 4-[4-(4-Dimethylaminophenyl)-5-methylthiazol-2-yl]-2,6-dimethoxyphenyl acetate], in experiment [1], the “Coloration pH 6” value is “+” and the “Coloration pH 9” value is reported as “++”.

As for `COc1cc(-c2nc(-c3ccc(N(C)C)cc3)c(-c3ccc(N(C)C)cc3)[nH]2)cc(OC)c1OC(C)=O` [Example 4d, 4-[4,5-Bis-(4-dimethylaminophenyl)-1H-imidazol-2-yl]-2,6-dimethoxyphenyl acetate], in experiment [1], the “Coloration pH 6” value is reported as “++” and the “Coloration pH 9” value was “++”.

For `CCCCCCCCCCCC(=O)Oc1ccc(-c2nc(-c3ccc(N(C)C)cc3)c(C)[nH]2)cc1OC` [Example 5, 4-[4-(4-Dimethylaminophenyl)-5-methyl-1H-imidazol-2-yl]-2-methoxyphenyl dodecanoate], in experiment [1], the “Coloration pH 6” value is “+” and the “Coloration pH 9” value is recorded as “++”.

Take `CCC(=O)Oc1ccc(-c2nc(-c3ccc(N(C)C)cc3)c(C)[nH]2)cc1OC` [Example 5a, 4-[4-(4-Dimethylaminophenyl)-5-methyl-1H-imidazol-2-yl]-2-methoxyphenyl propanoate]: in experiment [1], the “Coloration pH 6” value is listed as “+” and the “Coloration pH 9” value is “++”.

Consider `CCCC(=O)Oc1ccc(-c2nc(-c3ccc(N(C)C)cc3)c(C)[nH]2)cc1OC` [Example 5b, 4-[4-(4-Dimethylaminophenyl)-5-methyl-1H-imidazol-2-yl]-2-methoxyphenyl butanoate], for which the “Coloration pH 6” value (in the experiment on lipase (pH 6.0 fleece); in experiment [1]) was “++” throughout. The “Coloration pH 9” value (in the experiment with lipase (pH 9.0 fleece); in experiment [1]) was “+++” each time.

With `CCCCC(=O)Oc1ccc(-c2nc(-c3ccc(N(C)C)cc3)c(C)[nH]2)cc1OC` [Example 5c, 4-[4-(4-Dimethylaminophenyl)-5-methyl-1H-imidazol-2-yl]-2-methoxyphenyl pentanoate], in experiment [1], the “Coloration pH 6” value was “++” and the “Coloration pH 9” value was “++”.

In the case of `CCCCCCCC(=O)Oc1ccc(-c2nc(-c3ccc(N(C)C)cc3)c(C)[nH]2)cc1OC` [Example 5d, 4-[4-(4-Dimethylaminophenyl)-5-methyl-1H-imidazol-2yl]-2-methoxyphenyl octanoate], in experiment [1], the “Coloration pH 6” value was “++” and the “Coloration pH 9” value is given as “+++”.

Turning to `COc1cc(-c2nc(-c3ccc(N(C)C)cc3)c(C)[nH]2)ccc1OP(=O)(O)O` [Example 6, 4-[4-(4-Dimethylaminophenyl)-5-methyl-1H-imidazol-2-yl]-2-methoxyphenyl dihydrogen phosphate], the “Coloration pH 9” value in the experiment on alkaline phosphatase is reported as “++”.

On to `COc1cc(-c2nc(-c3ccc(N(C)C)cc3)c(C)[nH]2)cc(OC)c1OP(=O)(O)O` [Example 6a, 4-[4-(4-Dimethylaminophenyl)-5-methyl-1H-imidazol-2-yl]-2,6-dimethoxyphenyldihydrogen phosphate], for which the “Coloration pH 9” value in the experiment on alkaline phosphatase is reported as “+++”.

For `COc1cc(-c2nc(-c3ccc(N(C)C)cc3)c(-c3ccccc3)[nH]2)cc(OC)c1OP(=O)(O)O` [Example 6b, 4-[4-(4-Dimethylaminophenyl)-5-phenyl-1H-imidazol-2-yl]-2,6-dimethoxyphenyldihydrogen phosphate], in the experiment on alkaline phosphatase, the “Coloration pH 6” value is listed as “++” and the “Coloration pH 9” value is on record as “+++”.

As to `COc1cc(-c2nc(-c3ccc(N(C)C)cc3)c(-c3ccc(N(C)C)cc3)[nH]2)cc(OC)c1OP(=O)(O)O` [Example 6c, 4-[4,5-Bis-(4-dimethylaminophenyl)-1H-imidazol-2-yl]-2,6-dimethoxyphenyl dihydrogen phosphate], in the experiment on alkaline phosphatase, the “Coloration pH 6” value is recorded as “+” and the “Coloration pH 9” value was “++”.

Consider `COc1cc(-c2nc(-c3ccc(N(C)C)cc3)c(C)o2)ccc1OP(=O)(O)O` [Example 7, 4-[4-(4-Dimethylaminophenyl)-5-methyl-oxazol-2-yl]-2-methoxyphenyl dihydrogen phosphate], for which, in the experiment with alkaline phosphatase, the “Coloration pH 6” value is “+” and the “Coloration pH 9” value is reported as “++”.

On to `COc1cc(-c2nc(-c3ccc(N(C)C)cc3)c(-c3ccc(N(C)C)cc3)o2)cc(OC)c1OP(=O)(O)O` [Example 7a, 4-[4,5-Bis-(4-dimethylaminophenyl)-oxazol-2-yl]-2,6-dimethoxyphenyl dihydrogen phosphate], for which, in the experiment on alkaline phosphatase, the “Coloration pH 6” value was “++” and the “Coloration pH 9” value was “+++”.

Take `COc1cc(-c2nc(-c3ccc(N(C)C)cc3)c(C)[nH]2)ccc1O[C@@H]1O[C@H](CO)[C@@H](O)[C@H](O)[C@H]1NC(C)=O` [Example 8, {4-[4-(4-Dimethylaminophenyl)-5-methyl-1H-imidazol-2-yl]-2-methoxyphenyl}-2-acetamido-2-deoxy-ε-D-glucopyranoside]: the “suitability as substrate (strong blue coloration)” value in experiment [2] (at pH 6 and pH 9) is recorded as “very good substrate”. Moreover, the “Coloration pH 6” value in experiment [2] (pH 6.0 fleece, potassium ferricyanide, enzyme about 1000 U/ml., ambient temperature, visual) is “+++”. In addition, the “Coloration pH 9” value in experiment [2] (pH 9.0 fleece, potassium ferricyanide, enzyme about 1000 U/ml., ambient temperature, visual) is listed as “+++”.

Regarding `COc1ccc(-c2nc(-c3ccc(O[C@@H]4O[C@H](CO)[C@H](O)[C@H](O)[C@H]4O)c(OC)c3)[nH]c2-c2ccc(OC)cc2)cc1` [Example 12, 2-(4-β-D-Galactopyranosyloxy-3-methoxyphenyl)-4,5-bis-(4-methoxyphenyl)-I,3-imidazole], the “colour of fleece 16” value in experiment [3] is on record as “red colored”. Also, the “colour formed in fleece 6” value in experiment [4] was “red color”.

The values are drawn from patent US5292669A, “Agents for the detection of substrates with hydrolase activity” (Boehringer Mannheim GmbH, priority 1992, dated 1994).
